Results: patent US20260306484A1, “INVERSE AGONISTS OF RAR RELATED ORPHAN RECEPTORS (RORS)” (11949098 CANADA INC. (NUREDCO) c/o Jean I. TCHERVENKOV, priority 2023, published 2026)

How the values were obtained:
[1] = system: CD4+ cells from in-vitro polarized peripheral blood mononuclear cells; assay: Th17-polarized PBMCs treated 48 h, then PMA/ionomycin and intracellular staining by flow cytometry; type: cell-based, human; conditions: 750 nM, PBMCs from 9 individuals, vs vehicle, paired t-test P<0.05
Protocol: FIG. 4 illustrates a bar graph represents the % of IL17A+ cells also known as Th17 cells out of CD4+ cells known as Helper T cells. The peripheral blood mononuclear cells from 9 individuals were polarized (in-vitro) using CD3/CD28 dynabeads in presence of TGFβ, IL1B, IL6 and IL23 for 14 days. The cells from each individual was divided into two equal portions and one portion was treated with the Cpd10 at dose of 750 nM and the second portion was treated with the vehicle for 48 hours followed by PMA/ionomycin in presence of transport blocker for 6 hours. Cpd10 decreased the % of IL17A+CD4+ in treated compared to vehicle treated controls and measured by flow cytometry. Paired t-test, significant, P<0.05.
(§1) FIG. 5 illustrates a bar graph represents the % of IL21+ cells which includes all types of CD4+ cells secreting IL21 (e.g. Th17, Tfh). The peripheral blood mononuclear cells from 9 individuals were polarized (in-vitro) using CD3/CD28 dynabeads in presence of TGFβ, IL1β, IL6 and IL23 for 14 days. The cells from each individual was divided into two equal portions and one portion was treated with the Cpd10 at dose of 750 nM and the second portion was treated with the vehicle for 48 hours followed by PMA/ionomycin in presence of transport blocker for 6 hours. Cpd10 decreased the % of IL21+CD4+ in treated compared to vehicle treated controls measured by flow cytometry. Paired t-test Significant P<0.05.
as §1, with “FIG. 6” for “FIG. 5”, “of IL22+” for “of IL21+”, “secreting IL22” for “secreting IL21”, “Th17, Th22).” for “Th17, Tfh).”, “of IL22+CD4+” for “of IL21+CD4+”, “Paired t-test, significant,” for “Paired t-test Significant”
FIG. 7 illustrates a bar graph represents the % RORγt+ cells which includes all types of CD4+ cells expressing RORγt (e.g. Th17). The peripheral blood mononuclear cells from 9 individuals were polarized (in-vitro) using CD3/CD28 dynabeads in presence of TGFβ, IL1β, IL6 and IL23 for 14 days. The cells from each individual was divided into two equal portions and one portion was treated with the Cpd10 at dose of 750 nM and the second portion was treated with the vehicle for 48 hours followed by PMA/ionomycin in presence of transport blocker for 6 hours. Cpd10 increased the % of RORγt+ CD4+ in treated compared to vehicle treated controls measured by flow cytometry. […]

[2] = system: pancreatic cancer (PDL1 expression); assay: PDL1 immune checkpoint expression in pancreatic cancer; type: cell-based, human; conditions: pancreatic cancer (FIG. 19)
[3] = system: breast cancer cell lines; assay: Cell colony forming units, breast cancer; type: cell-based, human; conditions: 5 micromolar
[4] = system: HuH-7 cells; assay: HuH-7 cell viability assay (MTT, GFP); type: cell-based, human
Excerpt: (§2) FIG. 30 illustrates in vitro cell viability assay both human HuH-7 and mouse Hepa1-6 cell lines with increasing concentrations of compound 10. In the human cell line you see an effect with as low as 1mMol concentration. HuH-7 and Hepa1-6 cell viability assays.

[5] = system: Hepa1-6 cells; assay: Hepa1-6 cell viability assay (MTT, GFP); type: cell-based, mouse; conditions: varying concentrations
Excerpt: as §2

[6] = system: HuH-7 cells; assay: HuH-7 colony formation assay; type: cell-based, human
Excerpt: (§3) FIG. 32 illustrates another in vitro viability assay Colony Formation Assay. […] HuH-7 and Hepa1-6 colony formation assays.
(§4) FIG. 33 illustrates another in vitro viability assay Colony Formation Assay. […] HuH-7 and Hepa1-6 colony formation assays.

[7] = system: Hepa1-6 cells; assay: Hepa1-6 colony formation assay; type: cell-based, mouse
Excerpt: as §3, §4

[8] = system: Balb/c skin grafts; assay: Balb/c skin graft survival in sensitized C57BL/6 recipients (Example 9); type: in vivo, mouse (C57BL/6); conditions: for median graft survival: daily ip, cpd 13 1 mg/kg, tacrolimus 0.5 mg/kg, or both, ctrl = 6 days, P-value<<0.001, mantel-cox test
Protocol: C57BL/6 mice were sensitized by 3 IP injections of 10 M Balb/c splenocytes at day 0, 7 and 14. The mice were transplanted at day 15 with 1 cm^2 skin grafts from Balb/c mice and treated daily with ip injections of vehicle (ctrl), cpd 13 1 mg/kg (131 mg/kg), tacrolimus 0.5 mg/kg (tacro0.5 mg/kg) and cpd13 1 mg/kg+tacrolimus 0.5 mg/kg (131 mg/kg+tacro0.5 mg/kg). P-value<<0.001, mantel-cox test; median graft survival: ctrl=6 days, tacro0.5 mg/kg=7 days, 131 mg/kg=13.5 days and cpd13 131 mg/kg+tacro0.5 mg/kg=23 days.

Compound	% of IL17A+ cells (Th17) out of CD4+ cells [1]	% of IL21+CD4+ cells [1]	% of IL22+CD4+ cells [1]	% of RORγt+ CD4+ cells [1]	expression of PDL1 [2]	ability to form colony forming units [3]	minimal effective concentration ([4]; human cell line HuH-7, read-out: lowest concentration with an effect on cell viability) [µM]	HuH-7 cell viability, GFP assay ([4]; varying concentrations)	HuH-7 cell viability, MTT assay ([4]; varying concentrations)	Hepa1-6 cell viability, GFP assay [5]	Hepa1-6 cell viability, MTT assay [5]	minimal effective concentration ([6]; Homo sapiens, Huh-7, both cell lines suppressed, read-out: concentration at which HuH-7 colony formation is suppressed) [µM]	HuH-7 colony growth ability ([6]; varying concentrations)	minimal effective concentration ([7]; Mus musculus, Hepa1-6, both cell lines suppressed, read-out: concentration at which Hepa1-6 colony formation is suppressed) [µM]	Hepa1-6 colony growth ability ([7]; varying concentrations)	median graft survival [8] [days]	skin graft survival increase ([8]; increase survival from 1 up to 3 weeks (FIG. 50))
CN1CCN(CC(=O)Nc2sc3c(c2C(=O)NCc2ccccc2)CCCC3)CC1 [Compound 10, N-benzyl-2-(2-(4-methylpiperazin-1-yl)acetamido)-4,5,6,7-tetrahydrobenzo[b]thiophene-3-carboxamide]	decreased	decreased	decreased	increased	increases that expression	significantly reduces	1000	significant and dose dependent difference	significant and dose dependent difference	significant and dose dependent difference	significant and dose dependent difference	2500	significant and dose dependent difference	2500	significant and dose dependent difference	–	–
C[C@@H]1CCN(C(=O)c2c(NC(=O)c3cccnc3)sc3c2CCCC3)[C@H](C)C1 [Compound 13, N-(3-((2R,4R)-2,4-dimethylpiperidine-1-carbonyl)-4,5,6,7-tetrahydrobenzo[b]thiophen-2-yl) nicotinamide]	–	–	–	–	–	–	–	–	–	–	–	–	–	–	–	13.5	up to 3 weeks
C=CC[C@@H]1/C=C(\C)C[C@H](C)C[C@H](OC)[C@H]2O[C@@](O)(C(=O)C(=O)N3CCCC[C@H]3C(=O)O[C@H](/C(C)=C/[C@@H]3CC[C@@H](O)[C@H](OC)C3)[C@H](C)[C@@H](O)CC1=O)[C@H](C)C[C@@H]2OC [tacrolimus, reference compound]	–	–	–	–	–	–	–	–	–	–	–	–	–	–	–	7	–
